Entries after “also recorded” stand apart in the source; their conditions may differ.
Assays:
[1] = assay type: in vitro ADME; settings: 2 h
Experimental: The in vitro stability of [^18F]CB251 was assayed by monitoring both the radio-TLC and the radio-HPLC profiles to determine its radiochemical purity. To assess the in vitro serum stability, 100 μL of [^18F]CB251 in 10% EtOH/saline was incubated with 0.5 mL of human serum from a healthy volunteer for 2 h at 37 °C and the solution was analysed at 0, 10, 30, 60 and 120 min by a radio-TLC scanner using MeOH-CH2Cl2 (5:95) as the developing solvent. Separately, 100 μL of [^18F]CB251 in 10% EtOH/saline was also incubated with 0.9 mL of human serum from a healthy volunteer for 2 h at 37 °C. Aliquots (200 μL) were taken from the sample at time points of 0, 30, 60 and 120 min and mixed with absolute acetonitrile (200 μL). The mixture was centrifuged (3500 rpm, 5 min) to precipitate out serum proteins. The resulting supernatant including the authentic CB251 (1.0 mg/2.0 mL of CH3CN, 20 μL) was filtered through a 0.45 μm GH Polypro (GHP) membrane Disc filter before HPLC analysis to determine the fraction of intact radiotracer. Samples were analysed by HPLC (Waters, Xterra RP-18, 5 μm, 4.6 × 250 mm; eluant: 60% CH3CN/H2O; flow rate: 1 mL/min; guard column 10 × 10 mm).

TSPO = TSPO (Rattus norvegicus, UniProt P16257); test: microPET in LPS-induced neuroinflammation rat model; assay type: in vivo; parameters: from tissue; host or cells: Living rat brain (ipsilateral and contralateral striatum), LPS-injected Sprague-Dawley rats
Sequence of TSPO (P16257 whole entry): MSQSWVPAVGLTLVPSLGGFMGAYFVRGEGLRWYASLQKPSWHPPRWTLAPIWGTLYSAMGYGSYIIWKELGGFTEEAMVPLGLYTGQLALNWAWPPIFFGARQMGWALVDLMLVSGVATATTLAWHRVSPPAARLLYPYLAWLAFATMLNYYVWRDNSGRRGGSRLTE
Experimental: Male Sprague-Dawley rats weighing 200–250 g were used for the brain inflammation model and neuroinflammation was induced using lipopolysaccharide (LPS; Sigma-Aldrich, St. Louis, MO, U.S.A.) as previously described. In all rats used for sequential PET scans, microglia activation between the ipsilateral and contralateral areas was determined by CD68 immunohistochemical staining.
Five LPS-induced neuroinflammation rats (219.2 ± 14.1 g) were used for brain PET imaging at 4 days post-LPS injection. Before the scan, the rats were anesthetized with 2% isoflurane in a 7:3 mixture of N2/O2. PET imaging of the rat brain was performed in a dedicated small animal PET/CT (NanoPET/CT, Bioscan, Inc., U.S.A.) with a 10-cm axial field-of-view (FOV) and a 12-cm transaxial FOV. […] To determine the TSPO selectivity and TSPO specificity of the PET images, flumazenil (5 mg/kg intravenously) was administered at 15 min post [^18F]CB251 injection via jugular catheter. Subsequently, PBR28 (5 mg/kg intravenously) was injected 30 min later via jugular catheter in the same LPS-induced neuroinflammation rat model. Three human glioblastoma U87-MG-bearing mice were used for TSPO-rich cancer PET imaging. PET scans of the mice, anesthetized with 2% isoflurane, were performed with a 9.3-cm axial, 8.4-cm trans-axial FOV scanner. At the end of each study, the list-mode data were sorted into a dynamic scan consisting of 54 frames for 90 min. The acquired images were reconstructed by the 3-D Adjoints Monte Carlo method, which included scatter and random corrections. A region of interest (ROI) with a 2-mm radius was delineated in the ipsilateral lesioned striatum by the intensely visualized region in the summed image of all the frames. Regional uptake of radioactivity was decay-corrected to the injection time and was expressed as the standardized uptake value (SUV), which was normalized to the injected radioactivity and animal body weight. Analysis of the PET images was performed using PMOD software v.3.1 (PMOD Technologies Ltd., Zurich, Switzerland). The time activity curve (TAC) representing the variation in radioligand concentration according to the time-course was estimated for the ipsilateral striatum.

[2] = system: human glioblastoma U87-MG xenografts; parameters: species or system mice; settings: mouse, in vivo
Experimental: Another in vivo test of [^18F]CB251 was performed in U87-MG-bearing mice using a microPET scanner (Fig. 6). Tumour cells were engrafted on the left thigh of Balb/c nude mice. [^18F]CB251 was administered intravenously after the tumour volume reached approximately 364.5 ± 32.2 mm^3 and a dynamic PET scan was performed. […] In particular, [^18F]CB251 provided a tumour accumulation (1.96 ± 0.11%ID/g at 1 h post injection) and a visible image of the tumour in summed PET images.
U87-MG cells (ATCC) were cultured in Dulbecco’s modified Eagle’s medium supplemented with 4 mM L-glutamine, 4,500 mg/L glucose, 1 mM sodium pyruvate, […] sodium bicarbonate, 10% FBS and antibiotic-antimycotic (Gibco, Grand Island, NY, USA) at 37 °C in a humidified atmosphere of 5% CO2. U87-MG cells were cultured for 2–3 days without changing the medium and were harvested with trypsin-EDTA in PBS. Male Balb/c nu/nu mice, obtained at 6–7 weeks of age (Orient Bio Inc., Seongnam, Korea), were subcutaneously injected in the right shoulder with 5 × 10^6 U87-MG cells suspended in 100 μL of 100 mM PBS (pH 7.4). Animal protocols were approved by the Seoul National University Bundang Hospital Animal Care and Use Committee and the methods were carried out in accordance with the approved guidelines. We also performed calliper measurements of the longest perpendicular tumour diameters.
Five LPS-induced neuroinflammation rats (219.2 ± 14.1 g) were used for brain PET imaging at 4 days post-LPS injection. Before the scan, the rats were anesthetized with 2% isoflurane in a 7:3 mixture of N2/O2. PET imaging of the rat brain was performed in a dedicated small animal PET/CT (NanoPET/CT, Bioscan, Inc., U.S.A.) with a 10-cm axial field-of-view (FOV) and a 12-cm transaxial FOV. […] Regional uptake of radioactivity was decay-corrected to the injection time and was expressed as the standardized uptake value (SUV), which was normalized to the injected radioactivity and animal body weight. […]

## CCCN(CCC)C(=O)Cc1c(-c2ccc(OCC[18F])cc2)nc2c(Cl)cc(Cl)cn12 [[^18F]CB251, 2-(2-(4-(2-[^18F]fluoroethoxy)phenyl)-6,8-dichloroimidazo[1,2-a]pyridin-3-yl)-N,N-dipropylacetamide]
[1]
  radioactive parent remaining in human serum: greater than 99%
TSPO; 30 min post injection
  uptake ratio between the ipsilateral area and the contralateral area: 2.35 times
TSPO; displacement, PBR28 5 mg/kg intravenously 30 min after flumazenil
  uptake of [18F]CB251 in the ipsilateral area after PBR28 injection: decreased significantly; also recorded: significantly decreased
TSPO; displacement, flumazenil 5 mg/kg intravenously at 15 min post injection
  uptake of [18F]CB251 in the ipsilateral region after flumazenil: did not prevent the uptake
TSPO; ipsilateral striatum, contralateral striatum as reference, Logan plot with reference tissue input
  binding potential of the specifically bound radioligand relative to the non-displaceable radioligand in tissue (BPND): 1.83 ± 0.18
TSPO; summed microPET images
  uptake in the skull: no significant uptake
[2]; male, Balb/c nu/nu, 1 h
  tumour uptake: 1.96 ± 0.11 %ID/g
[2]
  bladder and muscle uptake: low
  kidney uptake: high

— article PMC4745082, “A Novel PET Imaging Probe for the Detection and Monitoring of Translocator Protein 18 kDa Expression in Pathological Disorders” (Scientific Reports, 2016)
